From patent US6593333B1, “Substituted anilino-quinazoline (or quinoline) compounds and use thereof” (Astrazeneca AB, priority 1998, dated 2003)

What was measured:
[1] = system: TNFα production, human peripheral blood mononuclear cells; experiment: PBMC test: inhibition of LPS-stimulated TNFα production; format: cell-based
Experimental: The ability of compounds of this invention to inhibit TNFα production was assessed by using human peripheral blood mononuclear cells which synthesise and secrete TNFα when stimulated with lipopolysaccharide.
Peripheral blood mononuclear cells (PBMC) were isolated from heparinised (10 units/ml heparin) human blood by density centrifugation (Lymphoprep™; Nycomed). Mononuclear cells were resuspended in culture medium [RPMI 1640 medium (Gibco) supplemented with 50 units/ml penicillin, 50 μg/ml streptomycin, 2 mM glutamine and 1% heat-inactivated human AB serum (Sigma H-1513)]. Compounds were solubilised in DMSO at a concentration of 50 mM, diluted 1:100 in culture medium and subsequently serial dilutions were made in culture medium containing 1% DMSO. PBMCs (2.4×10^5 cells in 160 μl culture medium) were incubated with 20 μl of varying concentrations of test compound (triplicate cultures) or 20 μl culture medium containing 1% DMSO (control wells) for 30 minutes at 37° C. in a humidified (5%CO2/95% air) incubator (Falcon 3072; 96 well flat-bottom tissue culture plates). 20 μl lipopolysaccharide [LPS E.Coli 0111:B4 (Sigma L-4130), final concentration 10 μg/ml] solubilised in culture medium was added to appropriate wells. 20 μl culture medium was added to “medium alone” control wells. Six “LPS alone” and four “medium alone” controls were included on each 96 well plate. Varying concentrations of a known TNFα inhibitor were included in each test, i.e. an inhibitor of the PDE Type IV enzyme (for example see Semmler, J. Wachtel. H and Endres, S., Int. J. Immunopharmac. (1993), 15(3), 409-413) or an inhibitor of pro TNFα convertase (for example, see McGeehan, G. M. et al. Nature (1994) 370, 558-561). Plates were incubated for 7 hours at 37° C. (humidified incubator) after which 100 μl of the supernatant was removed from each well and stored at −70° C. (96 well round-bottom plates; Corning 25850). TNFα levels were determined in each sample using a human TNFα ELISA (see WO92/10190 and Current Protocols in Molecular Biology, vol 2 by Frederick M. Ausbel et al., John Wiley and Sons Inc.).
% inhibition=(LPS alone−medium alone)−(test concentration−medium alone)/(LPS alone−medium alone)×100

[2] = biological target: T1, p38α (Homo sapiens, UniProt Q16539); experiment: In vitro enzyme assay, p38α kinase; format: biochemical
T1 construct: c-myc (N); 6His (N); made in house; host or cells: E. coli (PET vectors)
T1 sequence (Q16539 whole entry): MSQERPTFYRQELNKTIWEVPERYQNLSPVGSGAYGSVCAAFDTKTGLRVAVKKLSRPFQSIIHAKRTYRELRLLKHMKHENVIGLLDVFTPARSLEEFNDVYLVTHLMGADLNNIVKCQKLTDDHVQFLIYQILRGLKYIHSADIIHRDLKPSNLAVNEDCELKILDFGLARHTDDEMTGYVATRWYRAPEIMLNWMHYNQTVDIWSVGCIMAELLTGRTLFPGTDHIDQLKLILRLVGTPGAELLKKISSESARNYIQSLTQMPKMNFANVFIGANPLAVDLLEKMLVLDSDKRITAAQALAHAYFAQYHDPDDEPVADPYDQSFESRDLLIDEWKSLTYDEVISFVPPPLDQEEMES
Experimental: The ability of compounds of the invention to inhibit the enzyme p38 kinase was assessed. Activity of particular test compounds against each of the p38α and p38β isoforms of the enzyme was determined.
Human recombinant MKK6 (GenBank Accesion Number G1209672) was isolated from Image clone 45578 (Genomics, 1996, 33, 151) and utilised to produce protein in the form of a GST fusion protein in a pGEX vector using analogous procedures to those disclosed by J. Han et al., Journal of Biological Chemistry, 1996, 271, 2886-2891. p38α (GenBank Accession Number G529039) and p38β (GenBank Accession Number G1469305) were isolated by PCR amplification of human lymphoblastoid cDNA (GenBank Accession Number GM1416) and human foetal brain cDNA [synthesised from mRNA (Clontech, catalogue no. 6525-1) using a Gibco superscript cDNA synthesis kit] respectively using oligonucleotides designed for the 5′ and 3′ ends of the human p38α and p38β genes using analogous procedures to those described by J. Han et al., Biochimica et Biophysica Acta, 1995, 1265, 224-227 and Y. Jiang et al., Journal of Biological Chemistry, 1996, 271, 17920-17926.
Both p38 protein isoforms were expressed in e coli in PET vectors. Human recombinant p38α and p38β isoforms were produced as 5′ c-myc, 6His tagged proteins. Both MKK6 and the p38 proteins were purified using standard protocols: the GST MKK6 was purified using a glutathione sepharose column and the p38 proteins were purified using nickel chelate columns.
The p38 enzymes were activated prior to use by incubation with MKK6 for 3 hours at 30° C. The unactivated coli-expressed MKK6 retained sufficient activity to fully activate both isoforms of p38. The activation incubate comprised p38α (10 μl of 10 mg/ml) or p38β (10 μl of 5 mg/ml) together with MKK6 (10 μl of 1 mg/ml), ‘Kinase buffer’ [100 μl; pH 7.4 buffer comprising Tris (50 mM), EGTA (0.1 mM), sodium orthovanadate (0.1 mM) and β-mercaptoethanol (0.1%)] and MgATP (30 μl of 50 mM Mg(OCOCH3)2 and 0.5 mM ATP). This produced enough activated p38 enzyme for 3 Microtiter plates.
Test compounds were solubilised in DMSO and 10 μl of a 1:10 diluted sample in ‘Kinase Buffer’ was added to a well in a Microtiter plate. […] The precipitated protein was phosphorylated by p38 kinase and test compounds were assessed for their ability to inhibit this phosphorylation. The plates were filtered using a Canberra Packard Unifilter and washed with 2% TCA, dried overnight and counted on a Top Count scintillation counter.
Test compounds were tested initially at a single dose and active compounds were retested to allow IC50 values to be determined.

| SMILES | IC50 [1] | IC50 [2] |
| --- | --- | --- |
| COc1cc2ncnc(Nc3ccc(C)c(NC(=O)c4ccccc4)c3)c2cc1OC [Example 11] | 3600 nM | 1300 nM |
| CCC(=O)Nc1cc(Nc2ncnc3cc(OC)c(OC)cc23)ccc1F [Example 14] | 3200 nM | 3400 nM |
| COc1cc2c(Nc3cc(NC(=O)c4cccc(N(C)C)c4)ccc3C)ncnc2c(OC)c1OC [Example 24, 4-[2-Methyl-5-(3-dimethylaminobenzamido)anilino]-6,7,8-trimethoxyquinazoline] | 5200 nM | 200 nM |
| COc1cc2c(Nc3cc(NC(=O)c4cccc(N(C)C)c4)ccc3C)ncnc2cc1OCCCN1CCOCC1 [Example 38] | 2000 nM | 100 nM |
